Assay results from ChEMBL document CHEMBL1146593, “Constituents of the stem bark of Pongamia pinnata with the potential to induce quinone reductase” (J Nat Prod, 2003).
≈ marks a conversion by molar mass, not a printed value.

Assays:
[1] = Inhibition of mouse Hepa-1c1c7 cells assessed as cell viability; type: cell-based
[2] = Chemoprevention index, ratio of IC50 for mouse Hepa-1c1c7 cells to drug level required to double NADPH:quinone reductase activity in mouse Hepa-1c1c7 cells; type: functional

SMILES: COc1cc(OC)c2c(c1C=O)O[C@H](c1ccccc1)CC2=O
- IC50 [1]: > 10 µg/mL
- Ratio [2]: >3.9

SMILES: CC1=C[C@@H]2[C@@H](CC1)[C@](C)(O)CC[C@H]2C(C)C
- IC50 [1]: > 5 µg/mL
- Ratio [2]: >2.2

SMILES: CO/C(=C\C(=O)c1c(OC)cc2c(c1OC)C=CC(C)(C)O2)c1ccccc1
- IC50 [1]: 9.6 µg/mL (≈ 25.2 µM)
- Ratio [2]: 8

SMILES: C=C(C)[C@@H](O)Cc1c(OC)cc(OC)c2c1O[C@H](c1ccccc1)CC2=O
- IC50 [1]: 19.3 µg/mL (≈ 52.4 µM)
- Ratio [2]: 4.4

SMILES: COc1cc2c(c3oc(-c4ccccc4)cc(=O)c13)C=CC(C)(C)O2 [CANDIDIN]
- IC50 [1]: 4.5 µg/mL (≈ 13.5 µM)
- Ratio [2]: 1

SMILES: COc1cc(OC)c2c(c1CC=C(C)C)O[C@H](c1ccccc1)CC2=O [CANDIDONE]
- IC50 [1]: 4.1 µg/mL (≈ 11.6 µM)
- Ratio [2]: 0.9

SMILES: COc1cc2c(c(OC)c1C(=O)CC(=O)c1ccc3c(c1)OCO3)C=CC(C)(C)O2 [PONGAPINONE A]
- IC50 [1]: 23.8 µg/mL (≈ 58 µM)
- Ratio [2]: 4.8

SMILES: COc1cc(OC)c2c(c1CC=C(C)C)O[C@H](c1ccc3c(c1)OCO3)CC2=O [PONGAPINONE B]
- IC50 [1]: 19.1 µg/mL (≈ 48.2 µM)
- Ratio [2]: 7.6

SMILES: COc1cc2c(c(OC)c1C(=O)/C=C(\O)c1ccccc1)C=CC(C)(C)O2 [PRAECANSONE B]
- IC50 [1]: 6.5 µg/mL (≈ 17.7 µM)
- Ratio [2]: 1.8

SMILES: C[S+]([O-])CCCCN=C=S (stereo not given) [SULFORAPHANE]
- IC50 [1]: 2.1 µg/mL (≈ 11.8 µM)
- Ratio [2]: 24.1
